# Literature values as cited in patent US20040197397A1, “Drug delivery system for treatment of urinary incontinence” (Watson Pharmaceuticals, Inc., priority 2002, published 2004).
# Conditions: free base
structure (smiles),measurement,value
"CCN(CC)CC#CCOC(=O)C(O)(c1ccccc1)C1CCCCC1 (stereo not shown) [Oxybutynin free base, Oxybutynin]",pKa,10.3
